Reference: patent US6608032B1, “Medicinal compositions” (Takara Shuzo Co., Ltd., priority 1999, dated 2003)
Where two headings read alike, the source gives them in different places.

How the values were obtained:
heme oxygenase 1 protein = assay: Heme oxygenase 1 induction in RAW264.7 cells (Western blot); type: cell-based; set-up: key: − represents no band observed; increase in the intensity of the band is represented as follows:+−<+<++; increase in the intensity of the band is represented as follows:+−<+<++; increase in the intensity of the band is represented as follows:+−<+<++; conditions: 15 hours
Description: RAW264.7 cells (ATCC TIB 71) were suspended in Dulbecco's modified Eagle's medium (Bio Whittaker, 12-604F) containing 10% fetal calf serum (Gibco) at a concentration of 3×10^5 cells/ml. 5 ml of the suspension was added to each well of a 6-well microtiter plate and the plate was incubated at 37° C. overnight in the presence of 5% CO2. 50 μl of a solution containing agarobiose or agarohexaose in Referential Example 1 at a concentration of 20 mM, 10 mM or 5 mM in water was added to the well. The plate was incubated for 15 hours. A positive control for heme oxygenase 1 induction in which 5 μl of 3 mM solution of 15-deoxy-Δ12,14 prostaglandin J2 (Cayman Chemical, 18570) in dimethyl sulfoxide was added, and a negative control in which water was added were provided. The cells were recovered by detaching the cells from the plate using a scraper and suspended in 0.1 M tris-HCl buffer (pH 7.5) containing 0.05 mM pepstatin A (Sigma, P5318), 0.2 mM leupeptin (Sigma, L2884), 1 mM phenylmethylsulfonyl fluoride (Nacalai Tesque, 273-27), 10 mm ethylenediaminetetraacetic acid disodium salt and 0.1% Triton X-100. A supernatant obtained by centrifuging the suspension after freezing and thawing was used as a protein fraction. The content of protein in the protein fraction was determined using Micro BCA Protein Assay Reagent (a product of Pierce sold by Takara Shuzo, P7411). A sample from the protein fraction prepared as described above was mixed with an equal volume of 0.125 M tris-hydrochloride buffer (pH 6.8) containing 4% sodium lauryl sulfate (SDS), 2% 2-mercaptoethanol, 0.001% Bromophenol Blue and 20% glycerol. After treatment at 100° C. for 5 minutes, a portion corresponding to 10 μg of protein was loaded on 12.5% SDS-polyacrylamide gel and electrophoresed at a constant current of 20 mA. After electrophoresis, the gel was transferred to a PVDF membrane (Millipore, IPVH000 10) at a constant voltage of 15 V for 25 minutes using a blotting buffer (containing 48 mM tris, 39 mM glycine, 20% methanol and 0.0375% SDS) and Trans-Blot SD Cell Semi-Dry blotting apparatus (Bio-Rad) according to the attached protocol. After transferring, the PVDF membrane was blocked in a solution of Block Ace (Dainippon Pharmaceutical, UK-B25) at 4° C. overnight. After blocking, the membrane washed three times in phosphate buffered saline containing 0.1% Tween 20 for 15 minutes with gentle shaking. The membrane was reacted in phosphate buffered saline containing 10% Block Ace, 0.1% Tween 20 and 200 ng/ml of anti-heme oxygenase 1 antibody (N-19; Santa Cruz, sc-7696) at room temperature for 1 hour with gentle shaking, and then washed three times in phosphate buffered saline containing 0.1% Tween 20 for 15 minutes with gentle shaking. The membrane was reacted in phosphate buffered saline containing 10% Block Ace, 0.1% Tween 20 and 0.1% peroxidase-labeled rabbit anti-goat IgG (H+L) antibody (Zymed, 61-1620) at room temperature for 1 hour with gentle shaking, and then washed five times in phosphate buffered saline containing 0.1% Tween 20 for 15 minutes with gentle shaking. The PVDF membrane was stained using Western Blot Chemiluminescence Reagent Plus (a product of NEN Life Science Products sold by Daiichi Pure Chemicals, NEL103) according to the attached protocol and exposed to an X-ray film (Kodak, CAT165 1454). After exposure, the film was developed using FPM800 (Fuji Film).
The intensity of the band depended on the concentration of agarobiose or agarohexaose. In the table, the intensity of the band for heme oxygenase 1 protein is expressed by the mark+. Specifically, − represents no band observed, and increase in the intensity of the band is represented as follows:+−<+<++.

HL-60 cells = assay: Proliferation of HL-60 cells with or without hydroxyurea G1 arrest, WST-1; type: cell-based; conditions: read-out: IC50 (concentration at which 50% of the proliferation is inhibited)
Description: HL-60 cells (ATCC CCL-240) were suspended in RPMI 1640 medium (Bio Whittaker, 12-702F) containing 10% fetal calf serum (Gibco) and […] at a concentration of 5×10^5 cells/ml. 20 ml of the suspension was added to a 10-cm Petri dish. The dish was incubated at 37° C. overnight in the presence of 5% CO2 to make the cells arrest at G1 phase. The cells were collected by centrifugation and resuspended in RPMI 1640 medium containing 10% fetal calf serum (Gibco) and 100 μM hydroxyurea at a concentration of 5×10^5 cells/ml. 5 ml of the suspension was added to each well of a 6-well microtiter plate. On the other hand, as cells without the treatment with hydroxyurea, HL-60 cells were suspended in RPMI 1640 medium containing 10% fetal calf serum (Gibco) at a concentration of 1×10^5 cells/ml. 5 ml of the suspension was added to each well of a 6-well microtiter plate. 50 μl of a solution containing agarobiose at a concentration of 80, 60, 40 or 20 mM in water, or 50 μl of a solution containing the agarohexaose at a concentration of 80, 60, 40 or 20 mM in water was added to the well containing the cells treated with hydroxyurea. 50 μl of a solution containing agarobiose at a concentration of 40, 30, 20 or 10 mM in water, or 50 μl of a solution containing agarohexaose at a concentration of 40, 30, 20 or 10 mM in water was added to the well containing the cells without the treatment with hydroxyurea. The plate was incubated for additional 48 hours. Cells collected by centrifuging the culture were suspended in 5 ml of fresh RPMI 1640 medium containing 10% fetal calf serum (Gibco). 100 μl of the suspension was used for measuring the viable cell number using Premix WST-1 Cell Proliferation Assay System (Takara Shuzo, MK400).

## OC[C@H]1O[C@@H](O[C@H]2[C@H]3OC[C@@H]2OC(O)[C@H]3O)[C@H](O)[C@@H](O)[C@H]1O (mixture of isomers) [Agarobiose, agarobiose]
Heme oxygenase 1 protein; final concentration of 50 μM
  Intensity of band for heme oxygenase 1 protein: +−
Heme oxygenase 1 protein; final concentration of 100 μM
  Intensity of band for heme oxygenase 1 protein: +
Heme oxygenase 1 protein; final concentration of 200 μM
  Intensity of band for heme oxygenase 1 protein: ++
HL-60 cells; Cells treated with hydroxyurea (arrested at G1 phase), 48 hours
  IC50: 401 µM
HL-60 cells; Cells without treatment with hydroxyurea, 48 hours
  IC50: 211 µM

## OCC1OC(OC2C3COC2C(O)C(OC2C(O)C(CO)OC(OC4C5COC4C(O)C(OC4C(O)C(CO)OC(OC6C7COC6C(O)C(O)O7)C4O)O5)C2O)O3)C(O)C(O)C1O (stereo not shown) [Agarohexaose, agarohexaose]
Heme oxygenase 1 protein; final concentration of 50 μM
  Intensity of band for heme oxygenase 1 protein: +−
Heme oxygenase 1 protein; final concentration of 100 μM
  Intensity of band for heme oxygenase 1 protein: +
Heme oxygenase 1 protein; final concentration of 200 μM
  Intensity of band for heme oxygenase 1 protein: ++
HL-60 cells; Homo sapiens, HL-60, 48 h, Cells treated with hydroxyurea (arrested at G1 phase)
  IC50: 383 µM
HL-60 cells; Homo sapiens, HL-60, 48 h, Cells without treatment with hydroxyurea
  IC50: 205 µM
